Data on six molecules can be found in PMC9435431, “Novel chemical entities inhibiting Mycobacterium tuberculosis growth identified by phenotypic high-throughput screening” (Scientific Reports, 2022).

Data set [1] in a line: in vitro. Type of data set: in vitro ADME, human. Conditions: for CLint scaled at 0.5 µM: human, microsomes. The procedure:
(§1) Compounds (0.5 µM) were incubated with 0.25 mg/mL liver microsomal proteins at pH 7.4 at 37 °C. Reactions were initiated with […] and samples taken at 0, 5, 10, 15, 20 and 30 min. The reaction was stopped by addition of 95% ACN/5% MeOH containing an internal standard. Samples were combined in compound groups of six pre-sorted by mono molecular weight and analyzed by LC/MS/MS. The peak area ratios (analyte peak area/IS peak area) were converted to % remaining using the area ratio at time 0 as 100%. The. half-life (T ½) and intrinsic clearance (mCLint) were calculated.

The conditions of data set [2]: mouse, in vivo.
For data set [3], the system named is wild-type M. tuberculosis. Put plainly: microbe, parasite or virus in culture. In kind it is cell-based, Mycobacterium tuberculosis. The note with it: for MIC: Mycobacterium tuberculosis.
Data set [4] is described as follows: in vitro. In kind it is in vitro ADME. The note with it: mouse, microsomes, pH 7.4. The procedure:
as §1

A short description of data set [5]: in vivo. The note with it: female, Balb/c, mouse; for AUC: po, 30 mg/kg.
Data set [6] has as its system M. tuberculosis. Put plainly: microbe, parasite or virus in culture. In kind it is cell-based. Conditions: Mycobacterium tuberculosis, read-out: MIC on solid medium.
Data set [7] can be described thus: Critical aggregation concentration. Type of data set: physicochemical.
A short description of data set [8]: in vitro. Conditions: PAMPA.
The nature of data set [9]: in vitro. In kind it is cell-based. Conditions: human. The procedure: HepG2 cells were seeded at 2000 cells per well in 384-well, black, clear bottom PDL coated plates in MEM medium supplemented with 10% FBS, 2 mM L-glutamine, 1 mM sodium pyruvate and incubated overnight at 37C, 5% CO2. Compounds were added and plates incubated for 72 h. Cell viability was measured using the CyQUANT® reagent and imaging on a ViewLux™ ultraHTS Microplate Imager. The IC20 and IC50 were calculated from dose response curves.

Data set [10] concerns M. tuberculosis H37Rv. Kind of data set: microbe, parasite or virus in culture. Type of data set: cell-based. Conditions: Mycobacterium tuberculosis, 120 h.
Where [11] appears, read: Table 5, read-out: Wild-type MIC.

SMILES strings stand for the structures. Values after ≈ are worked out from the molar mass of the structure shown. “Also recorded” adds a separate entry of the source. Where two headings read alike, the source gives them in different places.

For the molecule `O=C(NCCc1cc(Br)c(O)c(Br)c1)C1(c2ccc(F)cc2)CCC1` [PCB-31, N-(3,5-dibromo-4-hydroxyphenethyl)-1-(4-fluorophenyl)cyclobutane-1-carboxamide], the CLint scaled at 0.5 µM is 128 mL/min/kg in data set [1] (pH 7.4, human Clint) and 527 mL/min/kg in [4]. Further, the “absorption (in words)” value in [2] is recorded as “solubility-limited absorption”. For the same molecule, in data set [3], the “anti-tubercular activity (in words)” value is reported as “good anti-TB activity; also recorded: sub-micromolar”. In addition, the MIC in data set [3] (120 h, read-out: MIC) came out at 0.94 ± 0.23 µM (≈ 0.443 µg/mL). The molecule also had a half-life in data set [5] (iv) of 12 min. In addition, in data set [5], the AUC stood at 259 ng·h/mL.

Consider `O=C(O)C(F)(F)F.c1cc(C2CCN(CC3CCCCC3)CC2)ccn1` [Molecule 4PP-32, 4-[1-(Cyclohexylmethyl)-4-piperidyl]pyridine, 2,2,2-trifluoroacetic acid salt], for which the “anti-tubercular activity (in words)” value in data set [3] was “inactive”. Besides, the MIC in [3] (120 h, read-out: MIC) is over 20 µM; in [6], 1.6 µM.

For the molecule `O=C(NCCc1cc(Br)c(O)c(Br)c1)C1(c2ccccc2)CCC1` [PCB-2, N-(3,5-dibromo-4-hydroxyphenethyl)-1-phenylcyclobutane-1-carboxamide], the CLint scaled at 0.5 µM in data set [1] (pH 7.4, human Clint) was 427 mL/min/kg; in [1] (pH 7.4, in vitro human unbound microsomal clearance Clint,u), 593 mL/min/kg; in [4], 1920 mL/min/kg. Further, the “Oral AUC” value in data set [2] (female, Balb/c, po, 30 mg/kg) came out at 58 ng·h/mL. Further, the MIC worked out at 3.4 ± 0.6 µM (≈ 1.54 µg/mL) in data set [3] (120 h, read-out: MIC) and 3.4 µM (≈ 1.54 µg/mL) in [3] (read-out: MIC). In data set [7], this molecule returned a critical aggregation concentration of 3.3 µM. In addition, the area under the curve (AUC) in data set [5] is 58 ng·h/mL. The molecule also had a Papp in data set [8] of 87 ×10⁻⁶ cm/s.

Take `O=C(NCCc1cccc(Br)c1)C1(c2ccc(F)cc2)CCC1` [PCB-19, N-(3-bromophenethyl)-1-(4-fluorophenyl)cyclobutane-1-carboxamide]: the “microsomal clearance / stability (in words)” value in data set [1] (human microsomes) is recorded as “very poor microsomal stability”. The intrinsic clearance (CLint scaled) at 0.5 µM in data set [1] (pH 7.4, human Clint) is 3920 mL/min/kg. Further, the MIC stood at 2.3 ± 0.7 µM (≈ 0.865 µg/mL) in [3] (120 h, read-out: MIC); 2.3 µM (≈ 0.865 µg/mL) in data set [3] (setting [11]); 0.63 µM (≈ 0.237 µg/mL) in [6].

With `O=C(NCCc1cccc(Br)c1)C1(c2ccccc2Br)CCC1` [PCB-21, N-(3-bromophenethyl)-1-(2-bromophenyl)cyclobutane-1-carboxamide], the intrinsic clearance (CLint scaled) at 0.5 µM in data set [1] (pH 7.4, human Clint) was 13600 mL/min/kg. Further, the MIC was 2 ± 0.5 µM (≈ 0.874 µg/mL) in data set [3] (120 h, read-out: MIC); 2 µM (≈ 0.874 µg/mL) in [3] (setting [11]); 1.25 µM (≈ 0.546 µg/mL) in data set [6].

`COc1ccc(CCNC(=O)C2(c3ccccc3)CCC2)cc1Br` [PCB-1, N-(3-bromo-4-methoxyphenethyl)-1-phenylcyclobutane-1-carboxamide]: the intrinsic metabolic clearance (CLint scaled) at 0.5 µM in data set [1] (pH 7.4, human Clint) is 1330 mL/min/kg. Besides, the MIC is 6.9 ± 1.7 µM (≈ 2.68 µg/mL) in data set [3] (120 h, read-out: MIC); 6.9 µM (≈ 2.68 µg/mL) in [3] (read-out: MIC); 6.9 µM (≈ 2.68 µg/mL) in data set [3] (read-out: MTB MIC). The molecule further came in with an IC20 at 72 h in data set [9] of 33 µM. Besides, the inhibition at 20 µM in data set [10] (read-out: % Inhibition Run 1) and in [10] (read-out: % Inhibition Run 2) was 100% throughout.
